From patent US20220040263A1, “COMPANION DIAGNOSTIC FOR COMBINATION LENALIDOMIDE AND ERYTHROPOIETIN TREATMENT” (H. Lee Moffitt Cancer Center and Research Institute, Inc., priority 2016, published 2022)

What was measured:
[1] = test system: lower risk MDS patients who have failed treatment with rhu-EPO; conditions: cited from earlier work
STAT5 = STAT5 DNA binding by EMSA in UT7 nuclear extracts; assay type: cell-based; conditions: combined lenalidomide and EPO treatment
Csk = Csk and phospho-Lyn507 in UT7 cells by Western immunoblot; assay type: cell-based; conditions: lenalidomide alone or combined with EPO
Method: Serum starved UT7 cells were treated with either vehicle alone (control), CC5013 (2 hours), EPO (30 minutes), or CC5013 followed by addition of EPO at the concentrations indicated. Cells were lysed and assayed for β-actin (Sigma), phospho-Lyn507, total Lyn and Csk (Cell Signaling) by Western immunoblot as described previously. Protein loading was normalized to β-actin, and immunoblot signals of phosphorylated Lyn were normalized to total Lyn and actin by band densitometry.
The Lyn/Src signal response is inhibited through both Csk phosphorylation of the C-terminal tyrosine residue enabled by SFK phosphorylation of the Csk-binding protein (Csk/Pag), and by the action of the CD45 PTP that dephosphorylatse the SFK activation loop tyrosine. There were minor changes in phosphorylation of the C-terminal tyrosine of Src and Lyn kinases despite significant increases in phosphorylation of the Src activation loop tyrosine [FIGS. 5 and 6]. A minor reduction in C-terminal tyrosyl phosphorylation relative to total Lyn was associated with a decrease in total Csk that was apparent with treatment with either lenalidomide alone or when combined with EPO [FIG. 6].

rhu-CD45 = target: T1, rhu-CD45 (Homo sapiens, UniProt P08575); experiment: BIOMOL Green CD45 Tyrosine Phosphatase Assay; assay type: biochemical; conditions: recombinant CD45, substrate pp60c-Src, read-out: inhibition of CD45 PTP activity
T1 construct: purchased Calbiochem
T1 sequence (P08575 26-1306): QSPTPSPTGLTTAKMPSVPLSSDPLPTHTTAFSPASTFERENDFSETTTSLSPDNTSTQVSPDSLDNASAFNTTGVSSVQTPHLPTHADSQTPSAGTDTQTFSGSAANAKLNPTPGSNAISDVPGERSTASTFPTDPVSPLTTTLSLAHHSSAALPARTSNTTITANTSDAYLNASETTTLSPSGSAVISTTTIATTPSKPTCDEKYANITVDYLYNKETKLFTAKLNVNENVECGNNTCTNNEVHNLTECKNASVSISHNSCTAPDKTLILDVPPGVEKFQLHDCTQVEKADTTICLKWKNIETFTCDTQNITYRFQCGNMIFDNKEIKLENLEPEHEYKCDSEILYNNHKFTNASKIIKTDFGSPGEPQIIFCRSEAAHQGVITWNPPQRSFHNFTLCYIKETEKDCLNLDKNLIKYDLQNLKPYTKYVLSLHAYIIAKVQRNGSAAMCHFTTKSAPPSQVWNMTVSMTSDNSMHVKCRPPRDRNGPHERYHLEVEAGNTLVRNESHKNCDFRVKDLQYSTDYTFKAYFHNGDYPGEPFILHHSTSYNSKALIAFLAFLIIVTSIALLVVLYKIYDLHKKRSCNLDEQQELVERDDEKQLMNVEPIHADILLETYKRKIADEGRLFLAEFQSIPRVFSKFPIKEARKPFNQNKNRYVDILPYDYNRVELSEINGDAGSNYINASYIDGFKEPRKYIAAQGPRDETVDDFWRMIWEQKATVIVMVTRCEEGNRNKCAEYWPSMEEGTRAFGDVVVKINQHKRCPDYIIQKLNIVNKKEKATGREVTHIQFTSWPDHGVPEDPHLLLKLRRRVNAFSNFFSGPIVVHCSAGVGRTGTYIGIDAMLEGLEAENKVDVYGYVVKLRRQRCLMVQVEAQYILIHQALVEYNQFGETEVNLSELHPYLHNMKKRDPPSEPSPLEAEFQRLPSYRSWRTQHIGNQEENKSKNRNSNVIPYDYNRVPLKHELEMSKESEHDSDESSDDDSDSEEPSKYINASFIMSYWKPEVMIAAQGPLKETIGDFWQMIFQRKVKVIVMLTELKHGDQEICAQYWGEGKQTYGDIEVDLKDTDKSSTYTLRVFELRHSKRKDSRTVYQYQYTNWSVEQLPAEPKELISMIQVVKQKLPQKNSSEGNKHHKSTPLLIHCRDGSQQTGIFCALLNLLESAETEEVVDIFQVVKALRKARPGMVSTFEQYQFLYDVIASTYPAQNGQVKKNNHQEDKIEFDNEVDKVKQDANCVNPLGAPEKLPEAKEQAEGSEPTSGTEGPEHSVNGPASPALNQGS
Method: CD45-specific PTP activity was assayed as outlined in the BIOMOL Green™ CD45 Tyrosine Phosphatase Assay Kit. Briefly, 75 U of rhu-CD45 (Calbiochem) was incubated for 1H at 37° C. with the indicated inhibitors (1 μM CC5013 and thalidomide, 100 μM Na Orthovanadate, and 50 μM RWJ-60475 (CD45-specific PTP inhibitor) in 1× assay buffer. The substrate pp60c-Src was added at 200 μM and incubated for 1H at 37° C. Samples were read on a plate reader at 620 nm. Percent PTP activity was calculated according to the equation (OD of test sample/OD of control)×100.
This notion is in agreement with findings that lenalidomide suppressed cytosolic release of Csk that is dependent upon dephosphorylation of the Cbp/PAG Csk docking site (Tyr314) by CD45. To determine if lenalidomide inhibits CD45 phosphatase, recombinant CD45 PTP inhibition by lenalidomide and thalidomide was compared to the pan-PTP inhibitor sodium orthovanadate and the CD45-selective inhibitor, RWJ-60475 using the Biomol CD45 phosphatase assay. […] [FIG. 7].

**Q.** With `Nc1cccc2c1CN(C1CCC(=O)NC1=O)C2=O` (stereo not shown) [lenalidomide, 3-(4-amino-1-oxo-1,3-dihydro-2H-isoindol-2-yl)piperidine-2,6-dione] as the compound, how does the cytogenetic response ([1]; del5q patients) read?
**A.** Its cytogenetic response is 74%.

**Q.** And the transfusion-independence ([1]; del5q patients)?
**A.** The transfusion-independence was 67%.

**Q.** And the erythroid response ([1]; patients with chromosome 5q31 interstitial deletion (del5q))?
**A.** The erythroid response was 76%.

**Q.** And the MER rate ([1]; patients with normal or alternate karyotypes)?
**A.** The MER rate was 25-30%.

**Q.** What about the “STAT5 DNA binding (nuclear translocation)” value (STAT5) of the same compound?
**A.** The value was “greater DNA binding”.

**Q.** What about the “total Csk” value (Csk) of the same compound?
**A.** Its value is “decrease”.

**Q.** What about the inhibition at 1 µM (rhu-CD45) of the same compound?
**A.** The inhibition at 1 µM was roughly 50%.
